The record followed here is patent EP3262036B1, “THERAPEUTIC PYRIDAZINE COMPOUNDS AND USES THEREOF” (priority 2015, dated 2016).

This assay concerns the target BRG1 (Homo sapiens, UniProt P51532). Description: biochemical. In kind it is binding. As to conditions: BRG1 HTRF IC50 (µM). The text has this:
IC50 measurements for inhibitors using BRG1 TR-FRET Binding Assay
(In general: In TR-FRET formats the signal depends on donor and acceptor labels being close together.)

One may read the IC50 as the midpoint of a concentration-inhibition curve. Read a high IC50 as lower potency.

Chain of BRG1 (P51532 1448-1575): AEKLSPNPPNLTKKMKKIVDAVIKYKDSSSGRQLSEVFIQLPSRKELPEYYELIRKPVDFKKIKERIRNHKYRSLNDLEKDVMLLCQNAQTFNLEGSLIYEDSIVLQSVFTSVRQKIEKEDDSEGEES

Consider `Cn1ncc2c(CN3CCN(c4cc(-c5ccccc5O)nnc4N)CC3)cccc21` [Example 103, 2-[6-amino-5-[4-[(1-methylindazol-4-yl)methyl]piperazin-1-yl]pyridazin-3-yl]phenol], for which 0.0289 µM corresponded to half-maximal inhibition (IC50).
`Cc1nc(CN2CCN(c3cc(-c4ccccc4O)nnc3N)CC2)co1` [Example 104, 2-[6-amino-5-[4-[(2-methyloxazol-4-yl)methyl]piperazin-1-yl]pyridazin-3-yl]phenol] yielded an IC50 of 0.0569 µM.
The molecule `Cn1ncc2cc(CN3CCN(c4cc(-c5ccccc5O)nnc4N)CC3)ccc21` [Example 105, 2-[6-amino-5-[4-[(1-methylindazol-5-yl)methyl]piperazin-1-yl]pyridazin-3-yl]phenol] returned an IC50 of 0.0279 µM.
With `CC(C)(C)OC(=O)N1CCc2cc(CN3CCN(c4cc(-c5ccccc5O)nnc4N)CC3)ccc21` [Example 106, tert-butyl 5-[[4-[3-amino-6-(2-hydroxyphenyl)pyridazin-4-yl]piperazin-1-yl]methyl]indoline-1-carboxylate] the figure was 0.689 µM.
`Cn1cc(CN2CCN(c3cc(-c4ccccc4O)nnc3N)CC2)cn1` [Example 107, 2-[6-amino-5-[4-[(1-methylpyrazol-4-yl)methyl]piperazin-1-yl]pyridazin-3-yl]phenol]: the IC50 was determined as 0.0877 µM. This IC50 lies about 7.9-fold lower than the previous one.
The result for `CC1CN(c2cc(-c3ccccc3O)nnc2N)CCN1S(=O)(=O)c1ccccc1` (centres unmarked) [Example 109, 2-(6-amino-5-(3-methyl-4-(phenylsulfonyl)piperazin-1-yl)pyridazin-3-yl)phenol] reads 0.0176 µM.
With `CCS(=O)(=O)N1CCN(c2cc(-c3ccccc3O)nnc2N)CC1C` (centres unmarked) [Example 110, 2-(6-amino-5-(4-(ethylsulfonyl)-3-methylpiperazin-1-yl)pyridazin-3-yl)phenol] the figure was 0.0219 µM; with `CC1CN(c2cc(-c3ccccc3O)nnc2N)CCN1S(=O)(=O)C1CC1` (centres unmarked) [Example 111, 2-(6-amino-5-(4-(cyclopropylsulfonyl)-3-methylpiperazin-1-yl)pyridazin-3-yl)phenol], 0.0197 µM.
With `CC1(C)CN(c2cc(-c3ccccc3O)nnc2N)CCN1S(C)(=O)=O` [Example 112, 2-(6-amino-5-(3,3-dimethyl-4-(methylsulfonyl)piperazin-1-yl)pyridazin-3-yl)phenol] the figure was 0.0307 µM; with `COCCS(=O)(=O)N1CCN(c2cc(-c3ccccc3O)nnc2N)C[C@H]1C` [Example 117, (R)-2-(6-amino-5-(4-((2-methoxyethyl)sulfonyl)-3-methylpiperazin-1-yl)pyridazin-3-yl)phenol], 0.0535 µM.
The molecule `C[C@@H]1CN(c2cc(-c3ccccc3O)nnc2N)CCN1S(=O)(=O)c1nccn1C` [Example 118, (R)-2-(6-amino-5-(3-methyl-4-((1-methyl-1H-imidazol-2-yl)sulfonyl)piperazin-1-yl)pyridazin-3-yl)phenol] yielded an IC50 of 0.0281 µM.
With `CC(C)(O)C(=O)N1C2CCC1CN(c1cc(-c3ccccc3O)nnc1N)C2` [Example 120, 1-(3-(3-amino-6-(2-hydroxyphenyl)pyridazin-4-yl)-3,8-diazabicyclo[3.2.1]octan-8-yl)-2-hydroxy-2-methylpropan-1-one] the figure was 0.0444 µM.
With `CN(C)C(=O)N1C2CCC1CN(c1cc(-c3ccccc3O)nnc1N)C2` [Example 121, 3-(3-amino-6-(2-hydroxyphenyl)pyridazin-4-yl)-N,N-dimethyl-3,8-diazabicyclo[3.2.1]octane-8-carboxamide] the figure was 0.0225 µM; with `Cc1noc(C)c1C(=O)N1CCN(c2cc(-c3ccccc3O)nnc2N)CC1C` (centres unmarked) [Example 123, (4-(3-amino-6-(2-hydroxyphenyl)pyridazin-4-yl)-2-methylpiperazin-1-yl)(3,5-dimethylisoxazol-4-yl)methanone], 0.0879 µM; with `CC1CN(c2cc(-c3ccccc3O)nnc2N)CCN1C(=O)C1CC1c1ccccc1` (centres unmarked) [Example 124, (4-(3-amino-6-(2-hydroxyphenyl)pyridazin-4-yl)-2-methylpiperazin-1-yl)(2-phenylcyclopropyl)methanone], 0.0258 µM.
With `CC1CN(c2cc(-c3ccccc3O)nnc2N)CCN1C(=O)Cc1ccccn1` (centres unmarked) [Example 125, 1-(4-(3-amino-6-(2-hydroxyphenyl)pyridazin-4-yl)-2-methylpiperazin-1-yl)-2-(pyridin-2-yl)ethan-1-one] the figure was 0.0426 µM.
Molecule `Nc1nnc(-c2ccccc2O)cc1N1CC2CCC(C1)N2C(=O)c1cncs1` [Example 126, (3-(3-amino-6-(2-hydroxyphenyl)pyridazin-4-yl)-3,8-diazabicyclo[3.2.1]octan-8-yl)(thiazol-5-yl)methanone] gave an IC50 of 0.0203 µM.
The result for `CC(=O)N1[C@@H](C)CN(c2cc(-c3ccccc3O)nnc2N)C[C@@H]1C` [Example 127, 1-((2S,6S)-4-(3-amino-6-(2-hydroxyphenyl)pyridazin-4-yl)-2,6-dimethylpiperazin-1-yl)ethan-1-one] reads 0.369 µM.
The result for `CC(=O)N1[C@H](C)CN(c2cc(-c3ccccc3O)nnc2N)C[C@H]1C` [Example 128, 1-((2R,6R)-4-(3-amino-6-(2-hydroxyphenyl)pyridazin-4-yl)-2,6-dimethylpiperazin-1-yl)ethan-1-one] reads 0.505 µM; that for `CC1CN(c2cc(-c3ccccc3O)nnc2N)CCN1C(=O)C(C)(C)O` (centres unmarked) [Example 134, 1-(4-(3-amino-6-(2-hydroxyphenyl)pyridazin-4-yl)-2-methylpiperazin-1-yl)-2-hydroxy-2-methylpropan-1-one], 0.0349 µM; that for `CC1CN(c2cc(-c3ccccc3O)nnc2N)CCN1C(=O)c1cccnc1` (centres unmarked) [Example 135, (4-(3-amino-6-(2-hydroxyphenyl)pyridazin-4-yl)-2-methylpiperazin-1-yl)(pyridin-3-yl)methanone], 0.0446 µM.
With `Cc1cc(CC(=O)N2CCN(c3cc(-c4ccccc4O)nnc3N)CC2C)on1` (centres unmarked) [Example 136, 1-(4-(3-amino-6-(2-hydroxyphenyl)pyridazin-4-yl)-2-methylpiperazin-1-yl)-2-(3-methylisoxazol-5-yl)ethan-1-one] the figure was 0.0444 µM; with `CC1CN(c2cc(-c3ccccc3O)nnc2N)CCN1C(=O)c1cncs1` (centres unmarked) [Example 138, (4-(3-amino-6-(2-hydroxyphenyl)pyridazin-4-yl)-2-methylpiperazin-1-yl)(thiazol-5-yl)methanone], 0.0126 µM.
For `CC(=O)N1[C@H](C)CN(c2cc(-c3ccccc3O)nnc2N)C[C@@H]1C` [Example 139, 1-((2S,6R)-4-(3-amino-6-(2-hydroxyphenyl)pyridazin-4-yl)-2,6-dimethylpiperazin-1-yl)ethan-1-one], the IC50 amounted to 0.106 µM.
`CC(C)[C@H](N)C(=O)N1CCN(c2cc(-c3ccccc3O)nnc2N)CC1C` (stereo partly drawn) [Example 140, (2S)-2-amino-1-(4-(3-amino-6-(2-hydroxyphenyl)pyridazin-4-yl)-2-methylpiperazin-1-yl)-3-methylbutan-1-one] returned an IC50 of 0.0475 µM.
With `C[C@@H]1CN(c2cc(-c3ccccc3O)nnc2N)CCN1C(=O)[C@@H]1CCCO1` [Example 141, ((R)-4-(3-amino-6-(2-hydroxyphenyl)pyridazin-4-yl)-2-methylpiperazin-1-yl)((S)-tetrahydrofuran-2-yl)methanone] the figure was 0.033 µM; with `C[C@H]1CN(c2cc(-c3ccccc3O)nnc2N)CCN1C(=O)[C@@H]1CCCO1` [Example 142, ((S)-4-(3-amino-6-(2-hydroxyphenyl)pyridazin-4-yl)-2-methylpiperazin-1-yl)((S)-tetrahydrofuran-2-yl)methanone], 0.0975 µM.
The result for `Nc1nnc(-c2ccccc2O)cc1N1CCN(C(=O)c2cncs2)C(CO)C1` (centres unmarked) [Example 143, (4-(3-amino-6-(2-hydroxyphenyl)pyridazin-4-yl)-2-(hydroxymethyl)piperazin-1-yl)(thiazol-5-yl)methanone] reads 0.0206 µM; that for `C[C@@H]1CN(c2cc(-c3ccccc3O)nnc2N)CCN1C(=O)C(C)(C)O` [Example 145, (R)-1-(4-(3-amino-6-(2-hydroxyphenyl)pyridazin-4-yl)-2-methylpiperazin-1-yl)-2-hydroxy-2-methylpropan-1-one], 0.0642 µM.
With `C[C@H]1CN(c2cc(-c3ccccc3O)nnc2N)CCN1C(=O)C(C)(C)O` [Example 146, (S)-1-(4-(3-amino-6-(2-hydroxyphenyl)pyridazin-4-yl)-2-methylpiperazin-1-yl)-2-hydroxy-2-methylpropan-1-one] the figure was 0.0458 µM; with `CNC(=O)CN1CCN(c2cc(-c3ccccc3O)nnc2N)C[C@H]1C` [Example 148, (R)-2-(4-(3-amino-6-(2-hydroxyphenyl)pyridazin-4-yl)-2-methylpiperazin-1-yl)-N-methylacetamide], 0.0613 µM; with `C[C@H]1CN(c2cc(-c3ccccc3O)nnc2N)CCN1C(=O)c1cccnc1` [Example 155], 0.166 µM.
With `C[C@@H]1CN(c2cc(-c3ccccc3O)nnc2N)CCN1C(=O)c1cccnc1` [Example 156], half-maximal inhibition (IC50) was put at 0.0435 µM.
The result for `CC(C)[C@H](N)C(=O)N1CCN(c2cc(-c3ccccc3O)nnc2N)C[C@H]1C` [Example 157, 2-Amino-1-((R)-4-(3-amino-6-(2-hydroxyphenyl)pvridazin-4-yl)-2-methylpiperazin-1-yl)-3-methylbutan-1-one] reads 0.0296 µM; that for `CC(C)[C@H](N)C(=O)N1CCN(c2cc(-c3ccccc3O)nnc2N)C[C@@H]1C` [Example 158, 2-Amino-1-((R)-4-(3-amino-6-(2-hydroxyphenyl)pvridazin-4-yl)-2-methylpiperazin-1-yl)-3-methylbutan-1-one], 0.113 µM; that for `CC1CN(c2cc(-c3ccccc3O)nnc2N)CCN1C(=O)CN(C)C` (centres unmarked) [Example 162, 1-(4-(3-amino-6-(2-hydroxyphenyl)pyridazin-4-yl)-2-methylpiperazin-1-yl)-2-(dimethylamino)ethanone], 0.0586 µM.
The result for `CC(Oc1cc(-c2ccccc2O)nnc1N)C(C)(C)C` (centres unmarked) [Example 164, 2-(6-amino-5-((3,3-dimethylbutan-2-yl)oxy)pyridazin-3-yl)phenol] reads 0.143 µM.
The result for `Nc1nnc(-c2ccccc2O)cc1O[C@H]1CCCC[C@@H]1c1ccccc1` [Example 165, 2-(6-amino-5-(((1,2-trans)-2-phenylcyclohexyl)oxy)pyridazin-3-yl)phenol] reads 0.977 µM.
